Data taken from ChEMBL document CHEMBL1146465, “Three new oleanane-type triterpenes from Ludwigia octovalvis with cytotoxic activity against two human cancer cell lines” (J Nat Prod, 2004).
pIC50: −log10 of the molar value.

Assays:
KB = experiment: Cytotoxicity against human KB cells after 72 hrs by methylene blue assay; type: functional, cell-based
HT-29 = experiment: Cytotoxicity against human HT-29 cells after 72 hrs by methylene blue assay; type: functional, cell-based; settings: HT-29, 72 h

Compound	pIC50 (KB)	pIC50 (HT-29)
CC1(C)CC[C@]2(C(=O)O)CC[C@]3(C)C(=CC[C@@H]4[C@@]5(C)CC[C@H](O)[C@@](C)(COC(=O)/C=C/c6ccc(O)cc6)[C@@H]5CC[C@]43C)[C@@H]2C1	5.89	5.62
CC1(C)CC[C@]2(C(=O)O)CC[C@]3(C)C(=CC[C@@H]4[C@@]5(C)CC[C@H](O)[C@@](C)(COC(=O)/C=C\c6ccc(O)cc6)[C@@H]5CC[C@]43C)[C@@H]2C1	5.80	5.44
COc1cc([C@@H]2c3cc4c(cc3[C@@H](O[C@@H]3O[C@@H]5CO[C@@H](C)O[C@H]5[C@H](O)[C@H]3O)[C@H]3COC(=O)[C@H]23)OCO4)cc(OC)c1O [ETOPOSIDE]	5.96	5.64
CC1(C)CC[C@]2(C(=O)O)CC[C@]3(C)C(=CC[C@@H]4[C@@]5(C)CC[C@H](OC(=O)/C=C\c6ccc(O)cc6)[C@@](C)(CO)[C@@H]5CC[C@]43C)[C@@H]2C1	5.92	5.68
